Literature values in publication PMC2593936 (Bioorganic & medicinal chemistry, 2008).
Marks after values point to notes of the source that are not given here.

Target: T1, human A3AR (Homo sapiens, UniProt P0DMS8)
T1 sequence (P0DMS8 1-318): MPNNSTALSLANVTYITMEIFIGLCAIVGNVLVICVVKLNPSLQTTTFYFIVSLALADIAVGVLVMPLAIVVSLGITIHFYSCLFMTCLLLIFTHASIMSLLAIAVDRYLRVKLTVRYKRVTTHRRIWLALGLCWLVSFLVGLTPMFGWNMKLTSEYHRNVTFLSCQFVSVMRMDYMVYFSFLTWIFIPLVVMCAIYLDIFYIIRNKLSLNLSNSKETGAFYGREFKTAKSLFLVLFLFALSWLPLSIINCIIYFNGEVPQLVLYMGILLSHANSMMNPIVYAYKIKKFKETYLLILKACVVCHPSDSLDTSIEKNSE
Details: relative to full agonist NECA at 10 μM

## CNC(=O)[C@@]12C[C@@H]1[C@@H](n1cnc3c(NCc4cccc(I)c4)nc(Cl)nc31)[C@H](O)[C@@H]2O [Compound 7]
  %Efficacy A3: 100 ^c %
